Data reported in US6723742B2, “Substituted 3,5-diphenyl-1,2,4-triazoles and their use as pharmaceutical metal chelators” (Novartis AG., priority 1996, dated 2004).

Each molecule was assayed on Male Sprague-Dawley rats (assay: Test I: iron excretion induced in bile duct-cannulated rats (bile and urine iron, bathophenanthroline method)). Settings: bile duct-cannulated fasted rat; dose 100 mg/kg; bile and urine collected for 24 h.
Format: in vivo
Procedure: Test I: Iron Excretion Induced by Compounds of Formula I or II [Method as Described in Bergeron et al., J. Med. Chem. 34:2072-2078 (1991)]
Male Sprague-Dawley rats averaging 400 g are housed in Nalgene plastic metabolic cages and are given free access to water. The animals are anesthetized with sodium pentobarbital (50 mg/kg), given ip. The bile duct is cannulated with 22 gauge PE 50 tubing which is inserted ca. 2 cm into the duct and tied firmly in place. A skin-tunneling needle is inserted from the shoulder area around the abdominal incision. The cannula is threaded through the needle until it emerges from the shoulder opening. The cannula is then passed from the animal to the swivel inside a metal torque-transmitting tether, which is attached to a rodent jacket. The cannula is directed from the animal to a Gilson microfraction collector by a fluid swivel mounted above the metabolic cage. This system allows the animal to move freely in the cage while continuous bile samples are being collected. Bile samples are collected in plastic disposable tubes at 3 h intervals for 24 h. Urine samples are collected in plastic disposable tubes for 24 h.
Compounds of formula I or II are prepared in 60 % water, 40 % Cremophor RH-40 (v/v).
All animals are fasted for 48 h before the administration of the compound of formula I or II and the fast is maintained throughout the course of the experiment.
The iron indicator solution, solution A, is prepared by diluting a stock aqueous solution of 0.134 mM mercaptoacetic acid and 1.9 mM bathophenanthrolinedisulfonic acid disodium salt with 5 parts water and 5 parts saturated aqueous sodium acetate. Solution B is prepared as above but without the bathophenanthroline.
An equal volume of a 10 % trichloroacetic acid solution in 3 M HCl (solution C) is added to a urine sample (2.5 ml), and the sample heated in a 65° C. bath for 4 h. After filtration through nylon filters, two 1 ml aliquots are removed. Solution A (5 ml) is added to the sample, and solution B (5 ml) is added to the blank. Bile samples are prepared as the urine samples; however, the volumes are reduced. Standard iron curves are generated with each assay. All samples are transferred to polystyrene cuvettes and the absorbance measured at 535 nm.
Compounds of formula I or II are effective in this assay when administered at a dose in the range of from 10 to 200 mg/kg, e.g. 100 to 150 mg/kg. The induced total iron excretion is in the range of about 10 to 1500 μg Fe/kg body weight, e.g. 90 to 1000 μg Fe/kg body weight.

| SMILES | induced total iron excretion [μg Fe/kg body weight] |
| --- | --- |
| O=C(Cn1nc(-c2ccccc2O)nc1-c1ccccc1O)N1CCOCC1 [Example 34, 2-[3,5-Bis(2-hydroxyphenyl)-[1,2,4]triazol-1-yl]-l-morpholin-4-ylethanone] | 204 |
| O=C(O)Cn1nc(-c2ccccc2O)nc1-c1ccccc1O [Example 22, [3,5-Bis(2-hydroxyphenyl)-[1,2,4]triazol-1-yl]acetic acid] | 147 |
| COCCNC(=O)Cn1nc(-c2ccccc2O)nc1-c1ccccc1O [Example 25, 2-[3,5-Bis(2-hydroxyphenyl)-[1,2,4]triazol-1-yl]-N-(2-methoxyethyl)acetamide] | 337 |
| O=C(Cn1nc(-c2ccccc2O)nc1-c1ccccc1O)N(CCO)CCO [Example 37, 2-[3,5-Bis(2-hydroxyphenyl)-[1,2,4]triazol-1-yl]-N,N-bis(2-hydroxyethyl)-acetamide] | 301 |
| O=C(Cn1nc(-c2ccccc2O)nc1-c1ccccc1O)NCCN1CCOCC1 [Example 27, 2-[3,5-Bis(2-hydroxyphenyl)-[1,2,4]triazol-1-yl]-N-(2-morpholin-4-yl-ethyl)-acetamide] | 451 |
| O=C(Cn1nc(-c2ccccc2O)nc1-c1ccccc1O)NCCN(CCO)CCO [Example 30, N-{2-[Bis(2-hydroxyethyl)amino]ethyl}-2-[3,5-bis(2-hydroxyphenyl)-[1,2,4]triazol-1-yl]acetamide] | 447 |
| CN(C)C(=O)Cn1nc(-c2ccccc2O)nc1-c1ccccc1O [Example 33, 2-[3,5-Bis(2-hydroxyphenyl)-[1,2,4]triazol-1-yl]-N,N-dimethylacetamide] | 282 |
| CCOC(=O)Cn1nc(-c2ccccc2O)nc1-c1ccccc1O [Example 2, Ethyl [3,5bis(2-hydroxyphenyl)-[1,2,4]triazol-1-yl]acetate] | 91 |
| CN(CCO)C(=O)Cn1nc(-c2ccccc2O)nc1-c1ccccc1O [Example 28, 2-[3,5-Bis(2-hydroxyphenyl)-[1,2,4]triazol-1-yl]-N-(2-hydroxyethyl)-N-methyl-acetamide] | 413 |
| O=C(O)c1ccc(-n2nc(-c3ccccc3O)nc2-c2ccccc2O)cc1 [Example 5, 4-[3,5-Bis(2-hydroxyphenyl)-[1,2,4]triazol-1-yl]benzoic acid] | 659 |
| OCCn1nc(-c2ccccc2O)nc1-c1ccccc1O [Example 1, 3,5-Bis(2-hydroxyphenyl)-1-(2-hydroxyethyl)-1H-[1,2,4]triazole] | 368 |
| O=C(Cn1nc(-c2ccccc2O)nc1-c1ccccc1O)NCCO [Example 24, 2-[3,5bis(2-hydroxyphenyl)-(1,2,4]triazol-1-yl]-N-(2-hydroxyethyl)acetamide] | 413 |
| O=C(Cn1nc(-c2ccccc2O)nc1-c1ccccc1O)NC(CO)CO [Example 31, 2-[3,5-Bis(2-hydroxyphenyl)-[1,2,4]triazol-1-yl]-N-(2-hydroxy-1-hydroxymethyl-ethyl)acetamide] | 175 |
| O=C(Cn1nc(-c2ccccc2O)nc1-c1ccccc1O)NCCOCCO [Example 29, 2-[3,5-Bis(2-hydroxyphenyl)-[1,2,4]triazol-1-yl]-N-[2-(2-hydroxyethoxy)ethyl]-acetamide] | 359 |
| O=C(Cn1nc(-c2ccccc2O)nc1-c1ccccc1O)NCC(O)CO (stereo not drawn) [Example 26, 2-[3,5-Bis(2-hydroxyphenyl)-[1,2,4]triazol-1-yl]-N-(2,3-dihydroxypropyl)-acetamide] | 171 |

Same assay, conditions: bile duct-cannulated fasted rat; dose 118 mg/kg; bile and urine collected for 24 h

| SMILES | induced total iron excretion [μg Fe/kg body weight] |
| --- | --- |
| CN1CCN(C(=O)Cn2nc(-c3ccccc3O)nc2-c2ccccc2O)CC1 [Example 35, 2-[3,5-Bis(2-hydroxyphenyl)-[1,2,4]triazol-1-yl]-1-(4-methylpiperazin-1-yl)-ethanone] | 293 |

Same assay, conditions: bile duct-cannulated fasted rat; dose 119 mg/kg; bile and urine collected for 24 h

| SMILES | induced total iron excretion [μg Fe/kg body weight] |
| --- | --- |
| CN(C)CCN(C)C(=O)Cn1nc(-c2ccccc2O)nc1-c1ccccc1O [Example 38, 2-[3,5-Bis(2-hydroxyphenyl)-[1,2,4]triazol-1-yl]-N-(2-dimethylaminoethyl)-N-methylacetamide] | 970 |

Same assay, conditions: bile duct-cannulated fasted rat; dose 120 mg/kg; bile and urine collected for 24 h

| SMILES | induced total iron excretion [μg Fe/kg body weight] |
| --- | --- |
| Cc1ccc(O)c(-c2nc(-c3cc(C)ccc3O)n(-c3ccc(C(=O)O)cc3)n2)c1 [Example 21, 4-[3,5-Bis(2-hydroxy-5-methylphenyl)-[1,2,4]triazol-1-yl]benzoic acid] | 317 |

Same assay, conditions: bile duct-cannulated fasted rat; dose 133 mg/kg; bile and urine collected for 24 h

| SMILES | induced total iron excretion [μg Fe/kg body weight] |
| --- | --- |
| O=C(c1ccc(-n2nc(-c3ccccc3O)nc2-c2ccccc2O)cc1)N1CCOCC1 [Example 6, {4-[3,5-Bis(2-hydroxyphenyl)-[1,2,4]triazol-1-yl]-phenyl}morpholin-4-yl-methanone] | 968 |
| O=C(O)c1ccc(-n2nc(-c3cc(Cl)ccc3O)nc2-c2cc(Cl)ccc2O)cc1 [Example 17, 4-[3,5-Bis(5-chloro-2-hydroxyphenyl)-[1,2,4]triazol-1-yl]benzoic acid] | 203 |

Each molecule was assayed on iron-overloaded marmosets (Callithrix jacchus) (assay: Test II: iron excretion induced in iron-overloaded marmosets (urine and feces iron)). Settings: iron-overloaded marmoset, p.o., dose 110.5 mg/kg; 48 h after administration, pretreatment subtracted; one line per animal.
Format: in vivo
Procedure: Test II: Iron Excretion Induced by Compounds of Formula I or II [Method as Described in Bergeron et al., Blood 81:2166-2173 (1993)]
Adult (1 to 11 years old) marmosets (Callithrix jacchus) of both sexes, weighing 300 to 450 g are kept in pairs at 24-27° C. and a relative humidity of at least 60% in a 12-hour light-dark cycle. The animals are maintained on a pellet diet (No. 962 Nafag, Gossau, Switzerland) supplemented with fruit-vegetable mash, enriched with a vitamin-minerals concentrate (No. 9628 Nafag) and milk. Water is available ad libitum.
Iron-overloading procedure: The animals are iron-overloaded by 3 i.p. injections of iron (III) hydroxide polyisomaltose (Anaemex, Ciba-Geigy, Basel, Switzerland) at 14-day intervals (200 mg/kg twice and 100 mg/kg at the third injection). Prior to the first exposure to an iron chelator, the marmosets are rested at least 8 weeks.
Chelators administration: The test compounds are dispersed in 40 % aqueous Cremophor RH 40 (BASF, Ludwigshafen, Germany) for administration. The applied volume is 5 ml/kg body weight.
Iron excretion studies: The monkeys receive a low-iron diet 7 days before and throughout the experiments (4 days). The diet is prepared by mixing 628.9 g of a liquid diet for primates (Nafag No. 9694), 83 g of the corresponding lipid mixture (Nafag No. 9696), 131.3 g dietary fiber (Sanacell, Nafag) and 1.0 L of distilled water. […]

| SMILES | induced iron in feces [µg/kg] |
| --- | --- |
| COCCNC(=O)Cn1nc(-c2ccccc2O)nc1-c1ccccc1O [Example 25, 2-[3,5-Bis(2-hydroxyphenyl)-[1,2,4]triazol-1-yl]-N-(2-methoxyethyl)acetamide] | 163.2 |
